Results taken from PMC10319850, “Crystal structure of [1,2,4] triazolo[4,3- b ]pyridazine derivatives as BRD4 bromodomain inhibitors and structure–activity relationship study” (Scientific Reports, 2023).
Read-outs that look alike come from different tables or passages of the source.

Tests used:
BRD4 BD1 = BRD4 BD1 (Homo sapiens, UniProt O60885); experiment: AlphaScreen assay, BRD4 BD1 inhibition; format: binding; details: for inhibitory activity against BD1 (in words): measured range 0.0096 to 32 μM
Description: To find the hit molecules for BRD4 bromodomain inhibitor discovery, we performed an in vitro AlphaScreen assay with in-house chemical libraries.
The AlphaScreen assay was described previously and performed according to the manufacturer’s protocol (PerkinElmer, USA). The reaction buffer was 50 mM HEPES pH 7.4, 100 mM NaCl, 0.1% BSA, and 0.05% CHAPS.

BRD4 BD2 = BRD4 BD2 (Homo sapiens, UniProt O60885); experiment: AlphaScreen assay, BRD4 BD2 inhibition; details: for inhibitory activity for BD2 (in words): AlphaScreen
[1] = Supplementary Table S2, mean of three independent measurements, 8-point titration from 0.0096 to 32 μM, read-out: IC50 (μM) for BD1
[2] = AlphaScreen, N = 3, standard deviations in parentheses, read-out: IC50 (BD1)

Q: Which results are given for `Fc1cc2[nH]cc(CCNc3ccc4nnc(C5CC5)n4n3)c2cc1Cl` [Compound 10, N-[2-(5-chloro-6-fluoro-1H-indol-3-yl)ethyl]-3-cyclopropyl-[1,2,4]triazolo[4,3-b]pyridazin-6-amine]?
A: inhibitory activity against BD1 (in words) (BRD4 BD1; AlphaScreen): no inhibitory efficiency in the measured range; IC50 (BRD4 BD1; [1]): > 32 µM

Q: How did the “inhibitory activity against BD1 (in words)” value (BRD4 BD1; AlphaScreen) turn out when `Cc1nnc2ccc(N3CCC4(CCN(C(=O)OC(C)(C)C)CC4)CC3)nn12` [Compound 19] was run?
A: Its value is “exhibited inhibitory activities”.

Q: What about the IC50 (BRD4 BD1; [1]) of the same compound?
A: The IC50 was 9.22 ± 1.6 µM.

Q: `Cc1nnc2ccc(N3CCCCC3)nn12` [Compound 13] was tested. Which “inhibitory activity against BD1 (in words)” value (BRD4 BD1; AlphaScreen) did it give?
A: The value was “no blocking activities”.

Q: What about the IC50 (BRD4 BD1; [1]) of the same compound?
A: Its IC50 is over 32 µM.

Q: Which IC50 (BRD4 BD1; [1]) does the source give for `CC(C)N1CCN(c2ccc3nnc(C4CCC4)n3n2)CC1` [Compound 27, 3-cyclobutyl-6-(4-isopropylpiperazino)[1,2,4]triazolo[4,3-b]pyridazine] here?
A: Its IC50 is over 32 µM.

Q: Which IC50 (BRD4 BD1; [1]) does the source give for `CC(C)c1nnc2ccc(N3CCC(C(=O)O)CC3)nn12` [Compound 24, 1-(3-Isopropyl-[1,2,4]triazolo[4,3-b]pyridazin-6-yl)piperidine-4-carboxylic acid] here?
A: The IC50 was over 32 µM.

Q: For `Cc1nnc2ccc(N3CCC4(CC3)OCCO4)nn12` [Compound 20], which IC50 (BRD4 BD1; [1]) is on record?
A: Its IC50 is over 32 µM.

Q: How did the “inhibitory activity against BD1 (in words)” value (BRD4 BD1; AlphaScreen) turn out when `COc1ccc2[nH]cc(CCNc3ccc4nnc(C)n4n3)c2c1` [Compound 8, N-[2-(5-methoxy-1H-indol-3-yl)ethyl)-3-methyl-[1,2,4]triazolo[4,3-b]pyridazin-6-amine] was run?
A: The value was “nearly same blocking efficacy”.

Q: And the IC50 (BRD4 BD1; [1])?
A: Its IC50 is 25.7 ± 11.1 µM.

Q: Which IC50 (BRD4 BD1; [1]) does the source give for `Cc1nnc2ccc(N3CCC4(CC3)CNC4)nn12` [Compound 23] here?
A: The IC50 was over 32 µM.

Q: Which IC50 (BRD4 BD1; [1]) does the source give for `Cc1nnc2ccc(NCCNC(=O)c3ccccc3)nn12` [Compound 39] here?
A: Its IC50 is over 32 µM.

Q: Which “inhibitory activity against BD1 (in words)” value (BRD4 BD1; AlphaScreen) does the source give for `Fc1ccc2[nH]c3c(c2c1)CCN(c1ccc2nnc(-c4ccccc4F)n2n1)C3` [Compound 11, 6-Fluoro-2-[3-(2-fluorophenyl)-[1,2,4]triazolo[4,3-b]pyridazin-6-yl]-1,3,4,9-tetrahydropyrido[3,4-b]indole] here?
A: The value was “no inhibition”.

Q: And the IC50 (BRD4 BD1; [1])?
A: Its IC50 is over 32 µM.

Q: Which “inhibitory activity against BD1 (in words)” value (BRD4 BD1; AlphaScreen) does the source give for `Cc1nnc2ccc(N3CCSCC3)nn12` [Compound 17] here?
A: Its value is “no inhibitory efficacy”.

Q: And the IC50 (BRD4 BD1; [1])?
A: The IC50 was over 32 µM.

Q: Which IC50 (BRD4 BD1; [1]) does the source give for `Cc1nnc2ccc(N3CCC4(CCNCC4)CC3)nn12` [Compound 22] here?
A: The IC50 was over 32 µM.

Q: Which “inhibitory activity against BD1 (in words)” value (BRD4 BD1; AlphaScreen) does the source give for `Cc1nnc2ccc(NCCc3c[nH]c4ccc(F)cc34)nn12` [Compound 7, N-[2-(5-fluoro-1H-indol-3-yl)ethyl]-3-methyl-[1,2,4]triazolo[4,3-b]pyridazin-6-amine] here?
A: Its value is “nearly same blocking efficacy”.

Q: What about the IC50 (BRD4 BD1; [1]) of the same compound?
A: Its IC50 is 29 ± 5.7 µM.

Q: How did the IC50 (BRD4 BD1; [1]) turn out when `CCS(=O)(=O)NCCNc1ccc2nnc(C)n2n1` [Compound 29] was run?
A: The IC50 was over 32 µM.

Q: What does the source list for `FC(F)(F)c1nnc2ccc(NCCc3c[nH]c4ccccc34)nn12` [Compound 6, N-[2-(1H-indol-3-yl)ethyl)-3-(trifluoromethyl)-[1,2,4]triazolo[4,3-b]pyridazin-6-amine]?
A: inhibitory activity against BD1 (in words) (BRD4 BD1; AlphaScreen): did not much improved the IC50 value; IC50 (BRD4 BD1; [2]): 9.6 µM; IC50 (BRD4 BD2): 11.3 µM; inhibitory activity for BD2 (in words) (BRD4 BD2): have inhibitory activities for BD2

Q: Which results are given for `CCOC(=O)CCNc1ccc2nnc(C)n2n1` [Compound 33]?
A: inhibitory activity against BD1 (in words) (BRD4 BD1; AlphaScreen): showed inhibitory activity; IC50 (BRD4 BD1; [1]): 7.51 ± 0.63 µM

Q: Which “inhibitory activity against BD1 (in words)” value (BRD4 BD1; AlphaScreen) does the source give for `Cc1nnc2ccc(N3CCOCC3)nn12` [Compound 16] here?
A: The value was “no inhibitory efficacy”.

Q: And the IC50 (BRD4 BD1; [1])?
A: The IC50 was over 32 µM.

Q: For `CC(C)c1nnc2ccc(N3CCC(C(=O)NC4CC4)CC3)nn12` [Compound 26, N-cyclopropyl-1-[3-(propan-2-yl)[1,2,4]triazolo[4,3-b]pyridazin-6-yl]piperidine-4-carboxamide], which IC50 (BRD4 BD1; [1]) is on record?
A: Its IC50 is over 32 µM.

Q: `Cc1nnc2ccc(N3CCC4(CC3)CN(C(=O)OC(C)(C)C)C4)nn12` [Compound 21] was tested. Which “inhibitory activity against BD1 (in words)” value (BRD4 BD1; AlphaScreen) did it give?
A: The value was “exhibited inhibitory activities”.

Q: What about the IC50 (BRD4 BD1; [1]) of the same compound?
A: The IC50 was 6.21 ± 1.2 µM.

Q: With `COc1ccc(CNc2ccc3nnc(C)n3n2)cc1` [Compound 37] as the compound, how does the IC50 (BRD4 BD1; [1]) read?
A: The IC50 was 8.91 ± 0.94 µM.

Q: For `CCc1nnc2ccc(NC(CO)Cc3c[nH]c4ccccc34)nn12` (stereo not drawn) [Compound 12, 2-[(3-ethyl-[1,2,4]triazolo[4,3-b]pyridazin-6-yl)amino]-3-(1H-indol-3-yl)propan-1-ol], which “inhibitory activity against BD1 (in words)” value (BRD4 BD1; AlphaScreen) is on record?
A: Its value is “decreased blocking efficiency compared to that of 5”.

Q: And the IC50 (BRD4 BD1; [2])?
A: The IC50 was 25.2 µM.

Q: What about the IC50 (BRD4 BD2) of the same compound?
A: Its IC50 is 36.5 µM.

Q: What about the “inhibitory activity for BD2 (in words)” value (BRD4 BD2) of the same compound?
A: The value was “have inhibitory activities for BD2”.

Q: How did the IC50 (BRD4 BD1; [1]) turn out when `CC(C)CCNC(=O)C1CCN(c2ccc3nnc(C(C)C)n3n2)CC1` [Compound 25, N-(3-methylbutyl)-1-[3-(propan-2-yl)[1,2,4]triazolo[4,3-b]pyridazin-6-yl]piperidine-4-carboxamide] was run?
A: The IC50 was over 32 µM.

Q: With `Cc1nnc2ccc(NCCNC(=O)OC(C)(C)C)nn12` [Compound 32] as the compound, how does the IC50 (BRD4 BD1; [1]) read?
A: Its IC50 is over 32 µM.

Q: For `Cc1nnc2ccc(NCCNC(=O)Nc3ccccc3)nn12` [Compound 40], which IC50 (BRD4 BD1; [1]) is on record?
A: Its IC50 is over 32 µM.

Q: What does the source list for `Cc1nnc2ccc(N3C4CCC3COC4)nn12` [Compound 18]?
A: inhibitory activity against BD1 (in words) (BRD4 BD1; AlphaScreen): no inhibitory efficacy; IC50 (BRD4 BD1; [1]): > 32 µM

Q: How did the IC50 (BRD4 BD1; [1]) turn out when `Cc1nnc2ccc(NCCO)nn12` [Compound 31] was run?
A: Its IC50 is over 32 µM.

Q: With `Cc1nnc2ccc(NCc3ccccc3)nn12` [Compound 35] as the compound, how does the IC50 (BRD4 BD1; [1]) read?
A: The IC50 was 10.2 ± 1.29 µM.

Q: For `Cc1nnc2ccc(NCCC(=O)Nc3ccccc3)nn12` [Compound 38], which IC50 (BRD4 BD1; [1]) is on record?
A: Its IC50 is over 32 µM.

Q: `CCC(=O)NCCNc1ccc2nnc(C)n2n1` [Compound 34] was tested. Which IC50 (BRD4 BD1; [1]) did it give?
A: The IC50 was over 32 µM.

Q: With `Cc1nnc2ccc(NCCC(=O)O)nn12` [Compound 28] as the compound, how does the IC50 (BRD4 BD1; [1]) read?
A: Its IC50 is over 32 µM.

Q: Which results are given for `Cc1nnc2ccc(NCCc3c[nH]c4ccccc34)nn12` [Compound 5]?
A: IC50 (BRD4 BD1; [2]): 17.1 µM; IC50 (BRD4 BD2): 23.2 µM; inhibitory activity for BD2 (in words) (BRD4 BD2): have inhibitory activities for BD2

Q: How did the “inhibitory activity against BD1 (in words)” value (BRD4 BD1; AlphaScreen) turn out when `CC1CCN(c2ccc3nnc(CNS(=O)(=O)N(C)C)n3n2)CC1` [Compound 15] was run?
A: Its value is “no inhibitory efficacy”.

Q: What about the IC50 (BRD4 BD1; [1]) of the same compound?
A: The IC50 was over 32 µM.

Q: `FC(F)(F)c1nnc2ccc(NCC(c3ccccc3)c3c[nH]c4ccccc34)nn12` (stereo not drawn) [Compound 9, N-[2-(1H-indol-3-yl)-2-phenylethyl]-3-(trifluoromethyl)-[1,2,4]triazolo[4,3-b]pyridazin-6-amine] was tested. Which “inhibitory activity against BD1 (in words)” value (BRD4 BD1; AlphaScreen) did it give?
A: Its value is “increased the IC50 value by only twofold compared to that of 6”.

Q: What about the IC50 (BRD4 BD1; [1]) of the same compound?
A: The IC50 was 23.4 ± 8.3 µM.
